Common to all, as to conditions: stereoisomer not certain
Data set [1] in a line: RP, Merck Supelco Ascentis Express C18, 100 × 2.1 mm, 2 µm, 40 °C, 0.2 mL/min, estimated dead time 1.1 min; A: water + 0.1% formic acid, pH 3; B: acetonitrile + 0.1% formic acid, pH 3; gradient (min/%B) 0/5 2/5 17/99.9 20/99.9.
Test in data set [2]: as above
This is another data set of the same source.

A short description of data set [3]: RP, Merck Supelco Ascentis Express C18, 100 × 2.1 mm, 2 µm, 40 °C, 0.4 mL/min, estimated dead time 0.55 min; A: water + 0.1% formic acid, pH 3; B: acetonitrile + 0.1% formic acid, pH 3; gradient (min/%B) 0/5 2/5 17/99.9 20/99.9.
Test in data set [4]: as above
This is another data set of the same source.

A short description of data set [5]: RP, Merck Supelco Ascentis Express C18, 100 × 2.1 mm, 2 µm, 39 °C, 0.3 mL/min, estimated dead time 0.73 min; A: water + 0.1% formic acid, pH 3; B: acetonitrile + 0.1% formic acid, pH 3; gradient (min/%B) 0/5 2/5 17/99.9 20/99.9.
A short description of data set [6]: RP, Merck Supelco Ascentis Express C18, 100 × 2.1 mm, 2 µm, 40 °C, 0.25 mL/min, estimated dead time 0.88 min; A: water + 0.1% formic acid, pH 3; B: acetonitrile + 0.1% formic acid, pH 3; gradient (min/%B) 0/5 2/5 17/99.9 20/99.9.
A short description of data set [7]: RP, Merck Supelco Ascentis Express C18, 100 × 2.1 mm, 2 µm, 40 °C, 0.35 mL/min, estimated dead time 0.63 min; A: water + 0.1% formic acid, pH 3; B: acetonitrile + 0.1% formic acid, pH 3; gradient (min/%B) 0/5 2/5 17/99.9 20/99.9.

The source of these data is the RepoRT retention time repository (doi:10.1007/s00216-021-03828-0).

In the case of `CC12CCC(=O)C=C1CCC1C2CCC2(C)C1CCC2(O)C(=O)CO` (stereo unspecified) [CORTEXOLONE], the LC retention time in data set [1] is 9.2 min; in data set [2], 9.16 min; in data set [3], 7.73 min; in data set [4], 7.69 min; in data set [5], 8.25 min; in data set [6], 8.66 min. Moreover, the LC retention time in data set [7] was 7.95 min.

`NC(=O)[C@@H](N)Cc1c[nH]c2ccccc12` [L-TRYPTOPHANAMIDE]: the LC retention time in data set [1] was 2.97 min; in data set [2] it was 3.02 min; in data set [3], 1.56 min; in data set [4] it was 1.53 min; in data set [5], 2.02 min; in data set [6] it was 2.41 min. Moreover, the LC retention time in data set [7] was 1.78 min.

In the case of `N[C@@H](Cc1ccc(O)c([N+](=O)[O-])c1)C(=O)O` [3-NITRO-L-TYROSINE], the LC retention time was 2.7 min in data set [1]; 2.72 min in data set [2]; 1.35 min in data set [3]; 1.35 min in data set [4]; 1.78 min in data set [5]; 2.14 min in data set [6]. Moreover, the LC retention time in data set [7] is 1.56 min.

In the case of `O=C(O)c1ccnc2ccccc12` [4-QUINOLINECARBOXYLATE], the LC retention time in data set [1] is 1.57 min; in data set [2], 1.6 min; in data set [3], 0.773 min; in data set [4] it was 0.763 min; in data set [5], 1.04 min; in data set [6] it was 1.26 min. Also, the LC retention time in data set [7] was 0.88 min.

For the molecule `O=C(O)Cc1c[nH]c2ccc(O)cc12` [5-HYDROXYINDOLEACETATE], the LC retention time in data set [1] is 4.78 min; in data set [2], 4.79 min; in data set [3] it was 3.19 min; in data set [4] it was 3.17 min; in data set [5], 3.83 min; in data set [6] it was 4.23 min. The LC retention time in data set [7] is 3.47 min.

Regarding `O=C(O)C(O)c1ccccc1` (stereo unspecified) [MANDELATE], the LC retention time in data set [1] was 4.85 min; in data set [2], 4.83 min; in data set [3], 2.95 min; in data set [4], 2.88 min; in data set [5], 3.67 min; in data set [6], 4.19 min. For the same molecule, the LC retention time in data set [7] is 3.27 min.

Take `NC(Cc1cc(I)c(Oc2cc(I)c(O)c(I)c2)c(I)c1)C(=O)O` (stereo unspecified) [THYROXINE]: the LC retention time in data set [1] is 8.88 min; in data set [2], 8.87 min; in data set [3], 7.69 min; in data set [4], 7.65 min; in data set [5] it was 8.11 min; in data set [6], 8.44 min. Further, the LC retention time in data set [7] is 7.87 min.

For `CSc1ncnc2nc[nH]c12` [THIOPURINE S-METHYLETHER], the LC retention time in data set [1] is 4.85 min; in data set [2] it was 4.85 min; in data set [3] it was 3.37 min; in data set [4] it was 3.33 min; in data set [5], 3.94 min; in data set [6], 4.33 min. Further, in data set [7], the LC retention time is 3.61 min.

Take `N[C@@H](Cc1cc(I)c(O)c(I)c1)C(=O)O` [3,5-DIIODO-L-TYROSINE]: the LC retention time in data set [1] was 5.38 min; in data set [2], 5.37 min; in data set [3], 4.07 min; in data set [4], 4.03 min; in data set [5] it was 4.54 min; in data set [6], 4.89 min. Also, the LC retention time in data set [7] is 4.26 min.

Turning to `N[C@@H](Cc1cc(I)c(Oc2ccc(O)cc2)c(I)c1)C(=O)O` [3,5-DIIODO-L-THYRONINE], the LC retention time was 7.21 min in data set [1]; 7.22 min in data set [2]; 6.02 min in data set [3]; 5.98 min in data set [4]; 6.45 min in data set [5]; 6.77 min in data set [6]. Also, the LC retention time in data set [7] was 6.19 min.

Turning to `CSCC[C@H](NC=O)C(=O)O` [N-FORMYL-L-METHIONINE], the LC retention time was 3.77 min in data set [1]; 3.77 min in data set [2]; 1.91 min in data set [3]; 1.87 min in data set [4]; 2.52 min in data set [5]; 3.02 min in data set [6]. In addition, the LC retention time in data set [7] was 2.16 min.

`CCC(C)C(N)C(=O)O` (stereo unspecified) [ISOLEUCINE]: the LC retention time in data set [1] is 1.43 min; in data set [2], 1.45 min; in data set [3], 0.697 min; in data set [4] it was 0.717 min; in data set [5], 0.93 min; in data set [6], 1.14 min. Besides, in data set [7], the LC retention time is 0.793 min.

For the molecule `O=C(O)C(O)Cc1ccc(O)cc1` (stereo unspecified) [HYDROXYPHENYLLACTATE], the LC retention time in data set [1] is 5.43 min; in data set [2] it was 5.42 min; in data set [3], 3.96 min; in data set [4], 3.93 min; in data set [5], 4.5 min; in data set [6], 4.9 min. For the same molecule, the LC retention time in data set [7] was 4.18 min.

Take `O=C(O)CCCCCCCCCCCO` [OMEGA-HYDROXYDODECANOATE]: the LC retention time is 9.68 min in data set [1]; 9.68 min in data set [2]; 8.17 min in data set [3]; 8.13 min in data set [4]; 8.71 min in data set [5]; 9.11 min in data set [6]. In addition, the LC retention time in data set [7] was 8.4 min.

As to `O=C(O)CCc1ccccc1O` [3-(2-HYDROXYPHENYL)PROPANOATE], the LC retention time in data set [1] was 6.72 min; in data set [2], 12.1 min; in data set [3] it was 5.13 min; in data set [4], 5.08 min; in data set [5], 5.72 min; in data set [6], 6.14 min. Also, the LC retention time in data set [7] is 5.36 min.

As for `CCCCCCCCCCCCCC(=O)OCC(O)CO` (stereo unspecified) [GLYCEROL-MYRISTATE], the LC retention time is 15.4 min in data set [1]; 15.3 min in data set [2]; 13.3 min in data set [3]; 13.2 min in data set [4]; 14 min in data set [5]; 14.6 min in data set [6]. Moreover, the LC retention time in data set [7] is 13.6 min.

As to `CC(=O)OCC(=O)C1(O)CCC2C3CCC4=CC(=O)CCC4(C)C3C(O)CC21C` (stereo unspecified) [CORTISOL 21-ACETATE], the LC retention time in data set [1] is 9.62 min; in data set [2], 9.62 min; in data set [3] it was 8.09 min; in data set [4], 8.05 min; in data set [5], 8.64 min; in data set [6], 9.05 min. Besides, in data set [7], the LC retention time was 8.33 min.

With `CCCCCCCCCCCC(=O)O` [LAURATE], the LC retention time in data set [1] was 14.7 min; in data set [2], 14.7 min; in data set [3], 12.6 min; in data set [4], 12.5 min; in data set [5], 13.3 min; in data set [6] it was 13.9 min. The LC retention time in data set [7] was 12.9 min.
